Assay: xn = mol fraction of the nth substance listed
Conditions: 101 kPa, Liquid; for mass density: Vibrating tube method; for viscosity: Vibrating wire viscometry; for speed of sound: ultrasonic interferometer

CCN(CC)CC.O=P(O)(O)O [triethylammonium dihydrogen phosphate] + CN1CCCC1=O
Conditions | mass density [kg/m3] | speed of sound [m/s] | viscosity [mPa·s]
298.15 K, x1 = 0.0115 | 1032 | 1574 | 1.95
298.15 K, x1 = 0.0257 | 1036.63 | 1580 | 2.23
298.15 K, x1 = 0.0702 | 1047.93 | 1602 | 2.5
298.15 K, x1 = 0.0995 | 1054.84 | 1624 | 3.22
298.15 K, x1 = 0.1498 | 1065.79 | 1657 | 4.42
298.15 K, x1 = 0.2409 | 1081.01 | 1711 | 6.12
298.15 K, x1 = 0.282 | 1086.8 | 1735 | 6.52
298.15 K, x1 = 0.3482 | 1094.7 | 1763 | 7.12
298.15 K, x1 = 0.4709 | 1105.46 | 1806 | 10.71
298.15 K, x1 = 0.6161 | 1114.03 | 1831 | 17.12
298.15 K, x1 = 0.6975 | 1117.42 | 1836 | 22.9
298.15 K, x1 = 0.7906 | 1120.24 | 1829 | 31.5
298.15 K, x1 = 0.9135 | 1123.51 | 1817 | 47.02
298.15 K, x1 = 0.9579 | 1124.64 | 1809 | 53.91
298.15 K, x1 = 1 | 1125.7 | 1794 | 64.31
303.15 K, x1 = 0.0115 | 1027.87 | 1558 | 0.97
303.15 K, x1 = 0.0257 | 1032.6 | 1570 | 1.24
303.15 K, x1 = 0.0702 | 1044.24 | 1595 | 2.49
303.15 K, x1 = 0.0995 | 1051.16 | 1620 | 3.17
303.15 K, x1 = 0.1498 | 1061.32 | 1656 | 3.8
303.15 K, x1 = 0.2409 | 1076.95 | 1706 | 5.27
303.15 K, x1 = 0.282 | 1083.03 | 1719 | 5.55
303.15 K, x1 = 0.3482 | 1090.71 | 1753 | 6.53
303.15 K, x1 = 0.4709 | 1101.42 | 1796 | 8.32
303.15 K, x1 = 0.6161 | 1110.51 | 1820 | 13.52
303.15 K, x1 = 0.6975 | 1114.2 | 1826 | 18.9
303.15 K, x1 = 0.7906 | 1117.34 | 1819 | 26.91
303.15 K, x1 = 0.9135 | 1121.34 | 1804 | 41.33
303.15 K, x1 = 0.9579 | 1123.03 | 1791 | 49.31
303.15 K, x1 = 1 | 1124.68 | 1769 | 57.1
308.15 K, x1 = 0.0115 | 1023.39 | 1539 | 1.07
308.15 K, x1 = 0.0257 | 1028.04 | 1544 | 1.05
308.15 K, x1 = 0.0702 | 1039.93 | 1577 | 1.97
308.15 K, x1 = 0.0995 | 1046.49 | 1600 | 2.57
308.15 K, x1 = 0.1498 | 1057.16 | 1636 | 2.91
308.15 K, x1 = 0.2409 | 1072.56 | 1689 | 4.13
308.15 K, x1 = 0.282 | 1078.25 | 1711 | 4.19
308.15 K, x1 = 0.3482 | 1086.21 | 1744 | 5.05
308.15 K, x1 = 0.4709 | 1097.31 | 1789 | 6.42
308.15 K, x1 = 0.6161 | 1106.86 | 1816 | 11
308.15 K, x1 = 0.6975 | 1111.06 | 1819 | 15.83
308.15 K, x1 = 0.7906 | 1114.71 | 1813 | 23.02
308.15 K, x1 = 0.9135 | 1119.77 | 1788 | 35.92
308.15 K, x1 = 0.9579 | 1121.61 | 1769 | 42.41
308.15 K, x1 = 1 | 1123.71 | 1757 | 49.53
313.15 K, x1 = 0.0115 | 1018.9 | 1540 | 1.61
313.15 K, x1 = 0.0257 | 1023.44 | 1552 | 1.37
313.15 K, x1 = 0.0702 | 1034.5 | 1576 | 1.48
313.15 K, x1 = 0.0995 | 1041.32 | 1594 | 1.81
313.15 K, x1 = 0.1498 | 1052.28 | 1630 | 1.88
313.15 K, x1 = 0.2409 | 1067.96 | 1685 | 1.95
313.15 K, x1 = 0.282 | 1074.06 | 1708 | 2.5
313.15 K, x1 = 0.3482 | 1081.89 | 1737 | 2.99
313.15 K, x1 = 0.4709 | 1093.3 | 1785 | 4.42
313.15 K, x1 = 0.6161 | 1103.08 | 1808 | 8.18
313.15 K, x1 = 0.6975 | 1107.89 | 1810 | 11.52
313.15 K, x1 = 0.7906 | 1111.88 | 1804 | 17.2
313.15 K, x1 = 0.9135 | 1117.73 | 1772 | 28.3
313.15 K, x1 = 0.9579 | 1119.92 | 1758 | 33.32
313.15 K, x1 = 1 | 1122.37 | 1730 | 38.31

CC(=O)[O-].C[NH+](C)C [trimethylammonium acetate] + CN1CCCC1=O
Conditions | mass density [kg/m3] | speed of sound [m/s] | viscosity [mPa·s]
298.15 K, x1 = 0.0182 | 1028.63 | 1571 | 2.04
298.15 K, x1 = 0.0369 | 1030.53 | 1575 | 2.28
298.15 K, x1 = 0.0987 | 1036.87 | 1578 | 3.04
298.15 K, x1 = 0.1401 | 1039.96 | 1581 | 3.42
298.15 K, x1 = 0.2032 | 1043.65 | 1586 | 3.89
298.15 K, x1 = 0.3166 | 1047.89 | 1584 | 4.5
298.15 K, x1 = 0.3637 | 1048.9 | 1582 | 4.56
298.15 K, x1 = 0.4353 | 1049.74 | 1580 | 4.61
298.15 K, x1 = 0.5625 | 1049.92 | 1571 | 4.52
298.15 K, x1 = 0.6999 | 1049.74 | 1559 | 4.23
298.15 K, x1 = 0.8435 | 1050.4 | 1550 | 3.7
298.15 K, x1 = 0.936 | 1051.83 | 1544 | 3.27
298.15 K, x1 = 0.9675 | 1052.54 | 1543 | 3.02
298.15 K, x1 = 1 | 1053.85 | 1544 | 2.76
303.15 K, x1 = 0.0182 | 1026.1 | 1556 | 1.64
303.15 K, x1 = 0.0369 | 1027.79 | 1560 | 1.86
303.15 K, x1 = 0.0987 | 1033.52 | 1565 | 2.56
303.15 K, x1 = 0.1401 | 1036.31 | 1568 | 3
303.15 K, x1 = 0.2032 | 1039.76 | 1572 | 3.48
303.15 K, x1 = 0.3166 | 1043.59 | 1569 | 4.05
303.15 K, x1 = 0.3637 | 1044.52 | 1566 | 4.11
303.15 K, x1 = 0.4353 | 1045.32 | 1564 | 4.16
303.15 K, x1 = 0.5625 | 1045.54 | 1551 | 4.01
303.15 K, x1 = 0.6999 | 1045.69 | 1537 | 3.64
303.15 K, x1 = 0.8435 | 1046.54 | 1524 | 3.14
303.15 K, x1 = 0.936 | 1048.22 | 1517 | 2.78
303.15 K, x1 = 0.9675 | 1048.93 | 1515 | 2.52
303.15 K, x1 = 1 | 1049.87 | 1514 | 2.37
308.15 K, x1 = 0.0182 | 1021.24 | 1534 | 1.43
308.15 K, x1 = 0.0369 | 1023.08 | 1540 | 1.57
308.15 K, x1 = 0.0987 | 1028.14 | 1546 | 2.23
308.15 K, x1 = 0.1401 | 1030.79 | 1550 | 2.64
308.15 K, x1 = 0.2032 | 1034.23 | 1555 | 3.14
308.15 K, x1 = 0.3166 | 1037.97 | 1554 | 3.7
308.15 K, x1 = 0.3637 | 1039.05 | 1553 | 3.76
308.15 K, x1 = 0.4353 | 1039.98 | 1551 | 3.77
308.15 K, x1 = 0.5625 | 1040.55 | 1540 | 3.52
308.15 K, x1 = 0.6999 | 1040.85 | 1530 | 3.12
308.15 K, x1 = 0.8435 | 1042 | 1519 | 2.64
308.15 K, x1 = 0.936 | 1043.81 | 1512 | 2.34
308.15 K, x1 = 0.9675 | 1044.69 | 1511 | 2.16
308.15 K, x1 = 1 | 1045.81 | 1508 | 2.06
313.15 K, x1 = 0.0182 | 1016.53 | 1528 | 1.52
313.15 K, x1 = 0.0369 | 1017.98 | 1533 | 1.38
313.15 K, x1 = 0.0987 | 1023.07 | 1538 | 1.96
313.15 K, x1 = 0.1401 | 1025.67 | 1542 | 2.39
313.15 K, x1 = 0.2032 | 1029.09 | 1546 | 2.81
313.15 K, x1 = 0.3166 | 1032.81 | 1544 | 3.37
313.15 K, x1 = 0.3637 | 1033.73 | 1543 | 3.41
313.15 K, x1 = 0.4353 | 1034.71 | 1540 | 3.42
313.15 K, x1 = 0.5625 | 1035.21 | 1528 | 3.16
313.15 K, x1 = 0.6999 | 1035.7 | 1517 | 2.74
313.15 K, x1 = 0.8435 | 1037.36 | 1508 | 2.25
313.15 K, x1 = 0.936 | 1039.26 | 1502 | 2.04
313.15 K, x1 = 0.9675 | 1040.35 | 1496 | 1.92
313.15 K, x1 = 1 | 1041.7 | 1490 | 1.83
